Reference: ChEMBL document CHEMBL3045649, “Green approach towards synthesis of substituted pyrazole-1,4-dihydro,9-oxa,1,2,6,8-tetrazacyclopentano[b]naphthalene-5-one derivatives as antimycobacterial agents” (2013)
Converted amounts (≈) assume the structure as drawn.

Tests used:
Type in all cases: functional
[1] = tested on: Mycolicibacterium smegmatis; experiment: Antimycobacterial activity against Mycobacterium smegmatis NCIM 5138 assessed as growth inhibition at 0.1 mg/ml after 24 hr by agar well diffusion method; conditions: NCIM 5138, 24 h, read-out: DIZ
[2] = tested on: Mycobacterium tuberculosis; experiment: Antimycobacterial activity against Mycobacterium tuberculosis MTCC 300 assessed as growth inhibition at 1 mg/ml after 24 hr by agar well diffusion method; conditions: MTCC 300, 24 h, read-out: DIZ
Mycolicibacterium phlei [3] = experiment: Antimycobacterial activity against Mycobacterium phlei NCIM 2240 assessed as growth inhibition at 0.1 mg/ml after 24 hr by agar well diffusion method; conditions: NCIM 2240, 24 h, read-out: DIZ
[4] = tested on: Mycolicibacterium smegmatis; experiment: Antimycobacterial activity against Mycobacterium smegmatis NCIM 5138 assessed as growth inhibition at 1 mg/ml after 24 hr by agar well diffusion method; conditions: NCIM 5138, 24 h, read-out: DIZ
Mycolicibacterium phlei [5] = experiment: Antimycobacterial activity against Mycobacterium phlei NCIM 2240 assessed as growth inhibition after 24 hr by agar well diffusion method; conditions: NCIM 2240, 24 h
[6] = tested on: Mycolicibacterium smegmatis; experiment: Antimycobacterial activity against Mycobacterium smegmatis NCIM 5138 assessed as growth inhibition after 24 hr by agar well diffusion method; conditions: NCIM 5138, 24 h
Mycolicibacterium phlei [7] = experiment: Antimycobacterial activity against Mycobacterium phlei NCIM 2240 assessed as growth inhibition at 0.5 mg/ml after 24 hr by agar well diffusion method; conditions: NCIM 2240, 24 h, read-out: DIZ
Mycolicibacterium phlei [8] = experiment: Antimycobacterial activity against Mycobacterium phlei NCIM 2240 assessed as growth inhibition at 1 mg/ml after 24 hr by agar well diffusion method; conditions: NCIM 2240, 24 h, read-out: DIZ
[9] = tested on: Mycolicibacterium smegmatis; experiment: Antimycobacterial activity against Mycobacterium smegmatis NCIM 5138 assessed as growth inhibition at 0.5 mg/ml after 24 hr by agar well diffusion method; conditions: NCIM 5138, 24 h, read-out: DIZ
[10] = tested on: Mycobacterium tuberculosis; experiment: Antimycobacterial activity against Mycobacterium tuberculosis MTCC 300 assessed as growth inhibition after 24 hr by agar well diffusion method; conditions: MTCC 300, 24 h
[11] = tested on: Mycobacterium tuberculosis; experiment: Antimycobacterial activity against Mycobacterium tuberculosis MTCC 300 assessed as growth inhibition at 0.5 mg/ml after 24 hr by agar well diffusion method; conditions: MTCC 300, 24 h, read-out: DIZ
[12] = tested on: Mycobacterium tuberculosis; experiment: Antimycobacterial activity against Mycobacterium tuberculosis MTCC 300 assessed as growth inhibition at 0.1 mg/ml after 24 hr by agar well diffusion method; conditions: MTCC 300, 24 h, read-out: DIZ

| SMILES | zone of inhibition at 100 µg/mL [1] [mm] | zone of inhibition at 1000 µg/mL [2] [mm] | zone of inhibition at 100 µg/mL (Mycolicibacterium phlei [3]) [mm] | zone of inhibition at 1000 µg/mL [4] [mm] | MIC (Mycolicibacterium phlei [5]) [µg/mL] | MIC [6] [µg/mL] | zone of inhibition at 500 µg/mL (Mycolicibacterium phlei [7]) [mm] | zone of inhibition at 1000 µg/mL (Mycolicibacterium phlei [8]) [mm] | zone of inhibition at 500 µg/mL [9] [mm] | MIC [10] [µg/mL] | zone of inhibition at 500 µg/mL [11] [mm] | zone of inhibition at 100 µg/mL [12] [mm] |
| --- | --- | --- | --- | --- | --- | --- | --- | --- | --- | --- | --- | --- |
| Cc1nn(-c2ccccc2)c2c1C(c1cn(-c3ccccc3)nc1-c1ccc(Cl)cc1)C1=C(NC(C)(c3ccc(O)c(Cl)c3O)NC1=O)O2 (stereo not given) | 3.8 | 1.5 | 2.5 | 6.8 | 90 (≈ 130 µM) | 70 (≈ 101 µM) | 4 | 6.5 | 5.2 | 1000 (≈ 1450 µM) | – | – |
| Cc1nn(-c2ccccc2)c2c1C(c1cn(-c3ccccc3)nc1-c1ccc(Cl)cc1)C1=C(NC(C)(c3cc(Cl)cc(I)c3O)NC1=O)O2 (stereo not given) | 4.2 | – | – | 5.4 | 50 (≈ 62.4 µM) | 70 (≈ 87.3 µM) | 1.5 | 2.8 | 5 | – | – | – |
| Cc1nn(-c2ccccc2)c2c1C(c1cn(-c3ccccc3)nc1-c1ccc(F)cc1)C1=C(NC(C)(c3cc(Cl)ccc3O)NC1=O)O2 (stereo not given) | 1.9 | – | – | 3.2 | – | 100 (≈ 152 µM) | – | – | 2.2 | – | – | – |
| Cc1nn(-c2ccccc2)c2c1C(c1cn(-c3ccccc3)nc1-c1ccc(F)cc1)C1=C(NC(C)(c3ccc(O)cc3O)NC1=O)O2 (stereo not given) | 4.1 | – | – | 6.5 | 50 (≈ 78 µM) | 40 (≈ 62.4 µM) | 1.5 | 2.2 | 5.5 | – | – | – |
| Cc1nn(-c2ccccc2)c2c1C(c1cn(-c3ccccc3)nc1-c1ccc(F)cc1)C1=C(NC(C)(c3ccc(O)c(Cl)c3O)NC1=O)O2 (stereo not given) | 4.5 | 2 | 3.4 | 11.5 | 50 (≈ 74.1 µM) | 70 (≈ 104 µM) | 1.5 | 2.5 | 7.6 | 1000 (≈ 1480 µM) | – | – |
| Cc1nn(-c2ccccc2)c2c1C(c1cn(-c3ccccc3)nc1-c1ccc(F)cc1)C1=C(NC(C)(c3cc(Cl)cc(I)c3O)NC1=O)O2 (stereo not given) | 5.6 | – | 5.8 | 12 | 60 (≈ 76.4 µM) | 60 (≈ 76.4 µM) | 7.1 | 8.6 | 9 | – | – | – |
| COc1ccc(-c2nn(-c3ccccc3)cc2C2C3=C(NC(C)(c4cc(Cl)ccc4O)NC3=O)Oc3c2c(C)nn3-c2ccccc2)cc1 (stereo not given) | 2.8 | – | – | 5.2 | 1000 (≈ 1490 µM) | 90 (≈ 134 µM) | – | 2 | 4.2 | – | – | – |
| COc1ccc(-c2nn(-c3ccccc3)cc2C2C3=C(NC(C)(c4cc(Cl)cc(I)c4O)NC3=O)Oc3c2c(C)nn3-c2ccccc2)cc1 (stereo not given) | 8 | 3.6 | 4 | 12 | 70 (≈ 87.8 µM) | 50 (≈ 62.7 µM) | 6.2 | 8.8 | 10.8 | 100 (≈ 125 µM) | 2.5 | 2 |
| Cc1nn(-c2ccccc2)c2c1C(c1cn(-c3ccccc3)nc1-c1ccc(Cl)cc1)C1=C(NC(C)(c3cc(Cl)ccc3O)NC1=O)O2 (stereo not given) | 1.5 | 1.9 | 2 | 3.6 | 100 (≈ 148 µM) | 100 (≈ 148 µM) | 2.4 | 3.5 | 2.3 | 1000 (≈ 1480 µM) | – | – |
| Cc1nn(-c2ccccc2)c2c1C(c1cn(-c3ccccc3)nc1-c1ccc(Cl)cc1)C1=C(NC(C)(c3ccc(O)cc3O)NC1=O)O2 (stereo not given) | 1.6 | – | 2.5 | 3.2 | 70 (≈ 107 µM) | 100 (≈ 152 µM) | 3.8 | 4.5 | 1.9 | – | – | – |
| CO[C@H]1/C=C/O[C@@]2(C)Oc3c(C)c(O)c4c(O)c(c(/C=N/N5CCN(C)CC5)c(O)c4c3C2=O)NC(=O)/C(C)=C\C=C\[C@H](C)[C@H](O)[C@@H](C)[C@@H](O)[C@@H](C)[C@H](OC(C)=O)[C@@H]1C [RIFAMPIN] | – | – | – | – | 40 (≈ 48.6 µM) | 480 (≈ 583 µM) | – | – | – | 280 (≈ 340 µM) | – | – |
